Results on two compounds are retold here after PMC3395594, “Rational Engineering of Enzyme Allosteric Regulation through Sequence Evolution Analysis” (PLoS Computational Biology, 2012).

Common to all, as to assay: malachite green phosphate release assay, fit to nonlinear noncompetitive inhibition
Holding throughout (type): biochemical

Assay [1] has as its target T1, E. coli FBPase (fructose-1,6-bisphosphatase) (Escherichia coli, UniProt P0A993, K104Q/K218Q/R132I/Y210F).
T1 construct: gene fbp; full-length fbp in pET101/D-TOPO, reverse primer without stop (C-terminal vector tag with polyhistidine, no cleavage told), expressed in E. coli BL21 (DE3), Ni-NTA purified

Assay [2] addresses T2, E. coli FBPase (fructose-1,6-bisphosphatase) (Escherichia coli, UniProt P0A993, K104Q).
T2 construct: gene fbp; full-length fbp in pET101/D-TOPO, reverse primer without stop (C-terminal vector tag with polyhistidine, no cleavage told), expressed in E. coli BL21 (DE3), Ni-NTA purified

For assay [3], the target named is T3, E. coli FBPase (fructose-1,6-bisphosphatase) (Escherichia coli, UniProt P0A993, R132I).
T3 construct: gene fbp; full-length fbp in pET101/D-TOPO, reverse primer without stop (C-terminal vector tag with polyhistidine, no cleavage told), expressed in E. coli BL21 (DE3), Ni-NTA purified

For assay [4], the target named is T4, E. coli FBPase (fructose-1,6-bisphosphatase) (Escherichia coli, UniProt P0A993, K104Q/R132I).
T4 construct: gene fbp; full-length fbp in pET101/D-TOPO, reverse primer without stop (C-terminal vector tag with polyhistidine, no cleavage told), expressed in E. coli BL21 (DE3), Ni-NTA purified

The target in assay [5] is T5, E. coli FBPase (fructose-1,6-bisphosphatase) (Escherichia coli, UniProt P0A993).
T5 construct: gene fbp; full-length fbp in pET101/D-TOPO, reverse primer without stop (C-terminal vector tag with polyhistidine, no cleavage told), expressed in E. coli BL21 (DE3), Ni-NTA purified
T5 sequence (P0A993 1-332): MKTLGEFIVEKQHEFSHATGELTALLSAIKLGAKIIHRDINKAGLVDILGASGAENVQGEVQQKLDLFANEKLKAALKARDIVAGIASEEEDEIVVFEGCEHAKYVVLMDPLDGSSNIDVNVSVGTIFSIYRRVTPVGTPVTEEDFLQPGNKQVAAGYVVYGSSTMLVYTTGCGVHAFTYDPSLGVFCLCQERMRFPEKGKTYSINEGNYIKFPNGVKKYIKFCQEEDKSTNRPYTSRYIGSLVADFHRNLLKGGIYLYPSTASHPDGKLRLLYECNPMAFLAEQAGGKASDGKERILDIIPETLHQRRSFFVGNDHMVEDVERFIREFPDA
The text has this: malachite green phosphate release assay, fit to nonlinear noncompetitive inhibition on E. coli FBPase (fructose-1,6-bisphosphatase) | Comparison of inhibition constants of wild-type and mutant FBPase by the allosteric inhibitor, AMP. | Comparison of inhibition constant of wild-type and mutant FBPase by the allosteric inhibitor, Glc-6-P.

Assay [6] deals with T6, E. coli FBPase (fructose-1,6-bisphosphatase) (Escherichia coli, UniProt P0A993, Y210F/K218Q).
T6 construct: gene fbp; full-length fbp in pET101/D-TOPO, reverse primer without stop (C-terminal vector tag with polyhistidine, no cleavage told), expressed in E. coli BL21 (DE3), Ni-NTA purified
The note with it: allosteric Glc-6-P site, with respect to FBP, Mg2+, pH 7.5, 25 C.

In assay [7] the target is T7, E. coli FBPase (fructose-1,6-bisphosphatase) (Escherichia coli, UniProt P0A993, K218Q).
T7 construct: gene fbp; full-length fbp in pET101/D-TOPO, reverse primer without stop (C-terminal vector tag with polyhistidine, no cleavage told), expressed in E. coli BL21 (DE3), Ni-NTA purified
The note with it: allosteric Glc-6-P site, with respect to FBP, Mg2+, pH 7.5, 25 C.

For assay [8], the target named is T8, E. coli FBPase (fructose-1,6-bisphosphatase) (Escherichia coli, UniProt P0A993, K104Q/R132I/Y210F/K218Q).
T8 construct: gene fbp; full-length fbp in pET101/D-TOPO, reverse primer without stop (C-terminal vector tag with polyhistidine, no cleavage told), expressed in E. coli BL21 (DE3), Ni-NTA purified
The conditions noted are these: allosteric Glc-6-P site; with respect to FBP; noncompetitive; Mg2+; pH 7.5, 25 C.

The target of assay [9] is T9, E. coli FBPase (fructose-1,6-bisphosphatase) (Escherichia coli, UniProt P0A993, Y210F).
T9 construct: gene fbp; full-length fbp in pET101/D-TOPO, reverse primer without stop (C-terminal vector tag with polyhistidine, no cleavage told), expressed in E. coli BL21 (DE3), Ni-NTA purified
The note with it: allosteric Glc-6-P site, with respect to FBP, Mg2+, pH 7.5, 25 C.

Read-outs that look alike come from different tables or passages of the source.

T7 sequence (P0A993 whole entry K218Q): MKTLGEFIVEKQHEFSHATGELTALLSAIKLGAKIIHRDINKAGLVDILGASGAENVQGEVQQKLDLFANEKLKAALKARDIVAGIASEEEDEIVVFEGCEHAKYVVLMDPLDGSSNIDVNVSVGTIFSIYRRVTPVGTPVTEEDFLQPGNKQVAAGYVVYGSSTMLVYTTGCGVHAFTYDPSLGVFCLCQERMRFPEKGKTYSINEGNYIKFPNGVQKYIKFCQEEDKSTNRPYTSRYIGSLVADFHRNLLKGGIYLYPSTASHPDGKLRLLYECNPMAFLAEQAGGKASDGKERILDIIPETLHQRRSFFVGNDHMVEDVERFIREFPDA
T3 sequence (P0A993 whole entry R132I): as the sequence (P0A993 whole entry K218Q) above, with R132I, Q218K counted along it
T6 sequence (P0A993 whole entry Y210F/K218Q): as the sequence (P0A993 whole entry K218Q) above, with Y210F counted along it
T2 sequence (P0A993 whole entry K104Q): as the sequence (P0A993 whole entry K218Q) above, with K104Q, Q218K counted along it
T4 sequence (P0A993 whole entry K104Q/R132I): as the sequence (P0A993 whole entry K218Q) above, with K104Q, R132I, Q218K counted along it
T9 sequence (P0A993 whole entry Y210F): as the sequence (P0A993 whole entry K218Q) above, with Y210F, Q218K counted along it
T8 sequence (P0A993 whole entry K104Q/R132I/Y210F/K218Q): as the sequence (P0A993 whole entry K218Q) above, with K104Q, R132I, Y210F counted along it
T1 sequence (P0A993 whole entry K104Q/R132I/Y210F/K218Q): as the sequence (P0A993 whole entry K218Q) above, with K104Q, R132I, Y210F counted along it

Turning to `Nc1ncnc2c1ncn2[C@@H]1O[C@H](COP(=O)(O)O)[C@@H](O)[C@H]1O` [AMP], the Ki came to 1680 ± 299 µM in [1]; 419 ± 54.1 µM in [2]; 151 ± 12.9 µM in assay [3]; 1460 ± 215 µM in [4]; 10.1 ± 0.8 µM in assay [5].

Turning to `O=P(O)(O)OC[C@H]1OC(O)[C@H](O)[C@@H](O)[C@@H]1O` (stereo partly shown) [Glc-6-P], the Ki in [6] was 20400 ± 7300 µM; in [7], 14100 ± 3900 µM; in [8] it was 21100 ± 2900 µM; in assay [9], 13100 ± 2900 µM; in assay [5] (allosteric Glc-6-P site, with respect to FBP, noncompetitive, Mg2+, pH 7.5, 25 C), 800 ± 200 µM.
